In general, inhibition refers to the share of the control response that was lost under treatment. Lower therefore signals little suppression.

This assay has as its system Human immunodeficiency virus. In words: Inhibition of HIV reverse transcriptase at 200 ug/ml.
`O=C(/C=C/c1ccc(O)c(O)c1)O[C@H](Cc1ccc(O)c(O)c1)C(=O)O` gave an inhibition of 57.4%.

`C/C=C(\C)C(=O)O[C@H]1[C@H](O)[C@@]2(CO)[C@H](CC1(C)C)C1=CC[C@@H]3[C@@]4(C)CC[C@H](O[C@@H]5O[C@H](C(=O)OCCC)[C@@H](O)[C@H](O[C@@H]6O[C@H](CO)[C@@H](O[C@@H]7OC[C@@H](O)[C@H](O)[C@H]7O)[C@H](O)[C@H]6O)[C@H]5O)C(C)(C)[C@@H]4CC[C@@]3(C)[C@]1(C)[C@@H](O)[C@H]2O`: the inhibition was 20.1%.

With `O=C(O)/C=C/c1ccc(O)c(O)c1`, the inhibition amounted to 0%.

The values above are taken from ChEMBL document CHEMBL1158332, “Saniculoside N from Sanicula europaea L” (J Nat Prod, 1997).
